Reference: patent publication US10611750B2, “Tetrahydroquinoline compositions as bet bromodomain inhibitors” (FORMA Therapeutics, Inc., priority 2013, dated 2020)
Where two headings read alike, the source gives them in different places.

Tests used:
[1] = target: T1, BRD4 Bromodomain 1 (BRD4 BD1) (Homo sapiens, UniProt O60885); experiment: AlphaScreen binding assay, BRD4 BD1; settings: His-tagged BRD4 BD1 50 nM, biotinylated H4 (1-21) K5/8/12/16 tetra-acetylated peptide 50 nM, compounds listed under IC50 range headings
T1 construct: 44-168 and BRD4 BD2
In short: (§1)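 Compound dilution series were mixed with His-tagged BRD4 bromodomain and biotinylated tetra-acetylated H4 (1-21) peptide at pH 7.3 (BD1 and peptide at 50 nM, BD2 and peptide at 100 nM). Donor and acceptor beads were then added, and plates were equilibrated at least 1 h before reading. IC50 values were fitted with a four-parameter logistic model.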

[2] = target: T2, BRD4 Bromodomain 2 (BRD4 BD2) (Homo sapiens, UniProt O60885); experiment: AlphaScreen binding assay, BRD4 BD2; settings: His-tagged BRD4 BD2 100 nM, biotinylated H4 (1-21) K5/8/12/16 tetra-acetylated peptide 100 nM, compounds listed under IC50 range headings
T2 construct: 333-460 were cloned, expressed, and purified to homogeneity
In short: as §1

[3] = test system: acute myelocytic leukemia (AML) cell line MV4-11; experiment: Oncology cell growth assay (3-day proliferation, CellTiter-Glo); format: cell-based; settings: Homo sapiens, MV4-11 cells, 3000 cells/well, compounds listed under IC50 range headings, read-out: MV411 IC50 (gIC50, inhibition of proliferation)
In short: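 Compounds were serially diluted 3-fold in DMSO, giving final well concentrations from 10 down to 0.0045 μM. MV4-11 cells were then seeded at 3000 cells/well in RPMI 1640 with 10% FBS and incubated 72 hours. CellTiter-Glo signal was measured and gIC50 obtained by four-parameter logistic regression.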

Row | SMILES | IC50 [1] | IC50 [2] | IC50 ([3]; MV4-11, 72 h) | IC50 ([3]; 72 hours)
1 | C/C=C/n1c(Oc2c(-c3cnn(C4CC4)c3)ccc3c2CC[C@H](C)N3C(C)=O)nc2ccccc21 [I-351, (S,E)-1-(6-(1-cyclopropyl-1H-pyrazol-4-yl)-2-methyl-5-(1-(prop-1-enyl)-1H-benzo[d]imidazol-2-yloxy)-3,4-dihydroquinolin-1(2H)-yl)ethanone] | 1000 to 10000 nM | < 50 nM | < 500 nM | –
2 | CCCOc1c(-c2cnn(C3CCNCC3)c2)ccc2c1CC[C@H](C)N2C(=O)OC [I-107, (S)-methyl 2-methyl-6-(1-(piperidin-4-yl)-1H-pyrazol-4-yl)-5-propoxy-3,4-dihydroquinoline-1(2H)-carboxylate] | 100 to 1000 nM | 50 to 500 nM | – | < 500 nM
3 | COC(=O)N1c2ccc(-c3cnn(C4CCNCC4)c3)c(Oc3ncc(C4CC4)cn3)c2CC[C@@H]1C [I-532] | 1000 to 10000 nM | 50 to 500 nM | 500 to 1000 nM | –
4 | COC(=O)N1c2ccc(-c3cnn(CCO)c3)c(Oc3ncc(F)cn3)c2CC[C@@H]1C [I-576] | 1000 to 10000 nM | ≥ 500 nM | > 1000 nM | –
5 | COC(=O)N1c2ccc(-c3cnn(C4CC4)c3)c(OCS(=O)(=O)N(C)C)c2CC[C@@H]1C [I-29, (S)-methyl 6-(1-cyclopropyl-1H-pyrazol-4-yl)-5-((N,N-dimethylsulfamoyl)methoxy)-2-methyl-3,4-dihydroquinoline-1(2H)-carboxylate] | 1000 to 10000 nM | 50 to 500 nM | > 1000 nM | –
6 | CC(=O)N1c2ccc(-c3cnn(C4CC4)c3)c(Oc3ccccc3C#N)c2CC[C@@H]1C [I-153, (S)-2-(1-acetyl-6-(1-cyclopropyl-1H-pyrazol-4-yl)-2-methyl-1,2,3,4-tetrahydroquinolin-5-yloxy)benzonitrile] | 100 to 1000 nM | < 50 nM | < 500 nM | –
7 | CC(=O)N1c2ccc(-c3cnn(C4CC4)c3)c(OCC(=O)N3CCC3)c2CC[C@@H]1C [I-7, (S)-2-(1-acetyl-6-(1-cyclopropyl-1H-pyrazol-4-yl)-2-methyl-1,2,3,4-tetrahydroquinolin-5-yloxy)-1-(azetidin-1-yl)ethanone] | 100 to 1000 nM | 50 to 500 nM | < 500 nM | –
8 | COC(=O)N1c2ccc(-c3cnn(C4CCNCC4)c3)c(Oc3ccc(C#N)cc3Cl)c2CC[C@@H]1C [I-134, (S)-methyl 5-(2-chloro-4-cyanophenoxy)-2-methyl-6-(1-(piperidin-4-yl)-1H-pyrazol-4-yl)-3,4-dihydroquinoline-1(2H)-carboxylate] | 100 to 1000 nM | < 50 nM | < 500 nM | –
9 | CC(=O)N1c2ccc(-c3cnn(C4CC4)c3)c(OCC(C)(C)F)c2CC[C@@H]1C [I-67, (S)-1-(6-(1-cyclopropyl-1H-pyrazol-4-yl)-5-(2-fluoro-2-methylpropoxy)-2-methyl-3,4-dihydroquinolin-1 (2H)-yl)ethanone] | 100 to 1000 nM | < 50 nM | < 500 nM | –
10 | COC(=O)N1c2ccc(-c3cnn(CCS(C)(=O)=O)c3)c(Oc3ncc(C4CC4)cn3)c2CC[C@@H]1C [I-570] | 1000 to 10000 nM | 50 to 500 nM | > 1000 nM | –
11 | CC(=O)N1c2ccc(-c3cnn(C4CC4)c3)c(OC3CCC3)c2CC[C@@H]1C [I-389] | 100 to 1000 nM | < 50 nM | < 500 nM | –
12 | CC(=O)N1c2ccc(-c3cnn(C4CC4)c3)c(Oc3ccc(Cl)cn3)c2CC[C@@H]1C [I-288, (S)-1-(5-(5-chloropyridin-2-yloxy)-6-(1-cyclopropyl-1H-pyrazol-4-yl)-2-methyl-3,4-dihydroquinolin-1(2H)-yl)ethanone] | 100 to 1000 nM | < 50 nM | < 500 nM | –
13 | COC(=O)N1c2ccc(-c3cnn(C4CC4)c3)c(Oc3ncccc3C#N)c2CC[C@@H]1C [I-569] | 1000 to 10000 nM | 50 to 500 nM | < 500 nM | –
14 | COC(=O)N1c2ccc(-c3cnn(C4CC4)c3)c(Oc3ccc(C#N)cc3)c2CC[C@@H]1C [I-213, (S)-methyl 5-(4-cyanophenoxy)-6-(1-cyclopropyl-1H-pyrazol-4-yl)-2-methyl-3,4-dihydroquinoline-1(2H)-carboxylate] | 100 to 1000 nM | 50 to 500 nM | < 500 nM | –
15 | COC(=O)N1c2ccc(-c3cnn(C4CC4)c3)c(Oc3ncc(C4CC4)cn3)c2CC[C@@H]1C [I-573] | 1000 to 10000 nM | 50 to 500 nM | 500 to 1000 nM | –
16 | COC(=O)N1c2ccc(-c3cnn(CC(C)(C)O)c3)c(Oc3ncc(C(F)(F)F)cc3F)c2CC[C@@H]1C [I-589] | 1000 to 10000 nM | 50 to 500 nM | 500 to 1000 nM | –

Row | SMILES | IC50 [1] | IC50 [2] | IC50 ([3]; MV4-11, 72 h) | IC50 ([3]; 72 hours)
17 | CC(=O)N1c2ccc(-c3cnn(C4CC4)c3)c(Oc3ncc4ccccc4n3)c2CC[C@@H]1C [I-77, (S)-1-(6-(1-cyclopropyl-1H-pyrazol-4-yl)-2-methyl-5-(quinazolin-2-yloxy)-3,4-dihydroquinolin-1(2H)-yl)ethanone] | 100 to 1000 nM | < 50 nM | < 500 nM | –
18 | COC(=O)N1c2ccc(-c3cnn(C4CCCS(=O)(=O)C4)c3)c(OC3CCC3)c2CC[C@@H]1C (stereo partly drawn) [I-62, Methyl (2S)-5-cyclobutoxy-6-(1-(1,1-dioxidotetrahydro-2H-thiopyran-3-yl)-1H-pyrazol-4-yl)-2-methyl-3,4-dihydroquinoline-1(2H)-carboxylate] | 100 to 1000 nM | < 50 nM | < 500 nM | –
19 | CC(=O)N1c2ccc(-c3cnn(C4CC4)c3)c(Oc3ccnc(C(F)(F)F)n3)c2CC[C@@H]1C [I-93, (S)-1-(6-(1-cyclopropyl-1H-pyrazol-4-yl)-2-methyl-5-(2-(trifluoromethyl)pyrimidin-4-yloxy)-3,4-dihydroquinolin-1(2H)-yl)ethanone] | 100 to 1000 nM | 50 to 500 nM | < 500 nM | –
20 | CC(=O)N1c2ccc(-c3cnn(C4CC4)c3)c(Oc3nccc4ccccc34)c2CC[C@@H]1C [I-257, (S)-1-(6-(1-cyclopropyl-1H-pyrazol-4-yl)-5-(isoquinolin-1-yloxy)-2-methyl-3,4-dihydroquinolin-1(2H)-yl)ethanone] | 1000 to 10000 nM | < 50 nM | < 500 nM | –
21 | COC(=O)N1c2ccc(-c3cnn(C4CCNCC4)c3)c(Oc3cc(C4CC4)ncn3)c2CC[C@@H]1C [I-531] | 1000 to 10000 nM | 50 to 500 nM | < 500 nM | –
22 | COC(=O)N1c2ccc(-c3cnn(CCO)c3)c(Oc3ccc(C(F)(F)F)cn3)c2CC[C@@H]1C [I-556] | 1000 to 10000 nM | 50 to 500 nM | 500 to 1000 nM | –
23 | CC(=O)N1c2ccc(-c3cnn(C4CC4)c3)c(Oc3ccc(C#N)nn3)c2CC[C@@H]1C [I-91, (S)-6-(1-acetyl-6-(1-cyclopropyl-1H-pyrazol-4-yl)-2-methyl-1,2,3,4-tetrahydroquinolin-5-yloxy)pyridazine-3-carbonitrile] | 100 to 1000 nM | 50 to 500 nM | < 500 nM | –
24 | COC(=O)N1c2ccc(-c3cnn(C4CCNCC4)c3)c(Oc3cccc(Cl)c3)c2CC[C@@H]1C [I-189, Methyl (S)-5-(3-chlorophenoxy)-2-methyl-6-(1-(piperidin-4-yl)-1H-pyrazol-4-yl)-3,4-dihydroquinoline-1(2H)-carboxylate] | 100 to 1000 nM | < 50 nM | < 500 nM | –
25 | COC(=O)N1c2ccc(-c3cnn(C4CC4)c3)c(OCCC(F)(F)F)c2CC[C@@H]1C [I-13, (S)-methyl 6-(1-cyclopropyl-1H-pyrazol-4-yl)-2-methyl-5-(3,3,3-trifluoropropoxy)-3,4-dihydroquinoline-1(2H)-carboxylate] | 1000 to 10000 nM | 50 to 500 nM | 500 to 1000 nM | –
26 | CC(=O)N1c2ccc(-c3cnn(C4CC4)c3)c(OCC3(CO)COC3)c2CC[C@@H]1C [I-49, (S)-1-(6-(1-cyclopropyl-1H-pyrazol-4-yl)-5-((3-(hydroxymethyl)oxetan-3-yl)methoxy)-2-methyl-3,4-dihydroquinolin-1(2H)-yl)ethanone] | 100 to 1000 nM | < 50 nM | > 1000 nM | –
27 | CC(=O)N1c2ccc(-c3cnn(C4CCNCC4)c3)c(OC3CCC3)c2CC[C@@H]1C [I-412] | 100 to 1000 nM | < 50 nM | < 500 nM | –
28 | COC(=O)N1c2ccc(-c3cnn(CCS(C)(=O)=O)c3)c(Oc3ncc(C(F)(F)F)cc3F)c2CC[C@@H]1C [I-588] | 1000 to 10000 nM | 50 to 500 nM | > 1000 nM | –
29 | CC(=O)N1c2ccc(-c3cnn(C4CC4)c3)c(Oc3ncccc3C)c2CC[C@@H]1C [I-286, (S)-1-(6-(1-cyclopropyl-1H-pyrazol-4-yl)-2-methyl-5-(3-methylpyridin-2-yloxy)-3,4-dihydroquinolin-1 (2H)-yl)ethanone] | 1000 to 10000 nM | 50 to 500 nM | < 500 nM | –
30 | CC(=O)N1c2ccc(-c3cnn(C4CC4)c3)c(OCC(=O)N3CCOCC3)c2CC[C@@H]1C [I-43, (S)-2-(1-acetyl-6-(1-cyclopropyl-1H-pyrazol-4-yl)-2-methyl-1,2,3,4-tetrahydroquinolin-5-yloxy)-1-morpholinoethanone] | 100 to 1000 nM | 50 to 500 nM | > 1000 nM | –
31 | CC(=O)N1c2ccc(-c3cnn(CCO)c3)c(OCC3CCOCC3)c2CC[C@@H]1C [I-415] | < 100 nM | < 50 nM | < 500 nM | –
32 | CC(=O)N1c2ccc(-c3cnn(CCO)c3)c(OC3CCC3)c2CC[C@@H]1C [I-411] | 100 to 1000 nM | < 50 nM | < 500 nM | –
